Key:
rats = settings: cited from earlier work; for seeking drugs of abuse (cocaine or methamphetamine) after a period of extinction: rats pretreated
Kinetic solubility = format: physicochemical; settings: phosphate buffer, mean ± SD
CB1 [1] = target: T1, CB1 (Homo sapiens, UniProt P21554); settings: absence of CP55,940; up to 10 μM
male Sprague-Dawley rats = test: Drug-induced reinstatement of extinguished cocaine-seeking behavior; format: in vivo, rat; settings: 10 mg/kg i.p. pretreatment, cocaine prime 10 mg/kg i.p., p > 0.05
P-gp (MDR1) = test: in vitro; settings: dog, MDCK-MDR1, pH 7.4
CB1 [2] = target: T1, CB1; test: CB1 calcium mobilization assay; format: cell-based; settings: IC50 relative to 2
[3] = cited from earlier work

T1 sequence (P21554 whole entry): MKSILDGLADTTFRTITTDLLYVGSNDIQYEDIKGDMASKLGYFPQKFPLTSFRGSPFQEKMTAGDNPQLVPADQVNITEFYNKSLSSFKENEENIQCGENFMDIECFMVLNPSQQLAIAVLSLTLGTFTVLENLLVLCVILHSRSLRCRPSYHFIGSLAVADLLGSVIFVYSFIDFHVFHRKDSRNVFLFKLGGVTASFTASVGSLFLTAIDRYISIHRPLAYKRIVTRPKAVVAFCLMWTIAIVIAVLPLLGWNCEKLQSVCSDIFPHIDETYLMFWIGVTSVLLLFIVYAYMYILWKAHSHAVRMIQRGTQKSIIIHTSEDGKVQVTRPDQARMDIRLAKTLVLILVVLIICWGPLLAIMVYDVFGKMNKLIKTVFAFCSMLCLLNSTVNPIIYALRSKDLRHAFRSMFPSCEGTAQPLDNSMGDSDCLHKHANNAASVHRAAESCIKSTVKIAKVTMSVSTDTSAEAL

Structure (SMILES) | seeking drugs of abuse (cocaine or methamphetamine) after a period of extinction (rats) | fold less potent than 2 in calcium assay (CB1 [2]) [fold] | also measured
O=C(Nc1ccc(Cl)cc1)Nc1cccc(-c2ccc(F)cc2)c1 [Compound 4] | less likely to seek drugs of abuse |  | prime-induced reinstatement of cocaine seeking (rats): attenuated prime-induced restatement of cocaine seeking
O=C(Nc1ccc(Cl)cc1)Nc1cccc(-c2cccc(N3CCCC3)n2)c1 [Compound 2, 1-(4-chlorophenyl)-3-{3-[6-(pyrrolidin-1-yl)pyridin-2-yl]phenyl}urea] | less likely to seek drugs of abuse |  | solubility at 2 h (Kinetic solubility): < 1 µM
O=C(Nc1ccc(Cl)cc1)Nc1ccc(-c2ccccc2)s1 [Compound 11, 1‐(4‐Chlorophenyl)‐3‐(5‐phenylthiophen‐2‐yl)urea] |  |  | inverse agonism (in words) (CB1 [1]): very little inverse agonism; effect on drug-induced cocaine-seeking behavior (male Sprague-Dawley rats): failed to significantly reduce; efflux ratio at 10 μM (P-gp (MDR1)): < 2.5
O=C(Nc1ccc(Cl)cc1)Nc1cc(-c2ccccc2)ccn1 [Compound 7, 1‐(4‐Chlorophenyl)‐3‐(4‐phenylpyridin‐2‐yl)urea] |  | 4.7 | 
N#Cc1ccc(NC(=O)Nc2cccc(-c3cccc(N4CCCC4)n3)c2)cc1 [Compound 3] |  |  | effect on THC in drug discrimination [3]: reduced THC’s potency
O=C(Nc1ccc(Cl)cc1)Nc1cncc(-c2ccccc2)c1 [Compound 9, 1‐(4‐Chlorophenyl)‐3‐(5‐phenylpyridin‐3‐yl)urea] |  | 8.8 | 
O=C(Nc1ccc(Cl)cc1)Nc1ccnc(-c2ccccc2)c1 [Compound 10, 1‐(4‐Chlorophenyl)‐3‐(2‐phenylpyridin‐4‐yl)urea] |  | 7.1 | 
CCc1c(C(=O)NCCc2ccc(N3CCCCC3)cc2)[nH]c2ccc(Cl)cc12 [Compound 1] | less likely to seek drugs of abuse |  | 

— publication PMC6953423 (Journal of medicinal chemistry, 2019)
